Data published in patent US8563540B2, “Pyrido[3,2-d]pyrimidine PI3K delta inhibitor compounds and methods of use” (Genetech, Inc., priority 2010, dated 2013).

Assays:
p110 delta = target: T1, p110 delta (Homo sapiens, UniProt O00329); assay: PI3K Isoform Inhibition Assay, p110 delta; assay type: biochemical; conditions: PI3K isoform inhibition assay of Example 901
T1 construct: purchased Upstate Group, Millipore; Dundee, UK
Experimental: (§1) PI3K enzymatic activity was assayed by measuring the amount of product phosphatidylinositol […] (PIP3) formed from substrate 4,5 phosphatidylinositol 4,5-phosphate (PIP2) using a fluorescence polarization displacement assay. The decrease in fluorescence polarization of a fluorescent PIP3 probe is measured as it is displaced from a PIP3-binding protein GRP-1 detector by PI3K-catalyzed product. […] The kinase reactions were initiated by the addition of 40 ng/mL p110α/p85α, 300 ng/mL p110β/p85α, 40 ng/mL p110γ, or 40 ng/mL […] (Upstate Group, Millipore; Dundee, UK), and 10 μM PIP2 (Echelon Biosciences) to the wells. […] After 60 minutes of incubation at room temperature to allow equilibration of labeled and unlabeled PIP3 binding, the parallel and perpendicular components of the fluorescence emissions from each sample were measured at an excitation wavelength of 530 nm and an emission wavelength of 590 nm using an Envision fluorescent plate reader with a rhodamine filter (PerkinElmer Life and Analytical Sciences; Wellesley, Mass.). The assay is capable of detecting 0.1-2.0 μM PIP3 product. The IC50 values were obtained by fitting the dose-dependent inhibition data to a 4-parameter equation using Assay Explorer software (MDL, San Ramon, Calif.).
(§2) The Formula I compound was serially diluted in 100% DMSO. The kinase reaction was incubated for 1 h at room temperature, and the reaction was terminated by the addition of PBS. IC50 values were subsequently determined using sigmoidal dose-response curve fit (variable slope).
The four Class I PI 3-kinases are cloned into baculovirus vectors as follows: […]

p110 alpha = target: T2, p110 alpha (Homo sapiens, UniProt P42336); assay: PI3K Isoform Inhibition Assay, p110 alpha (delta/alpha selectivity); conditions: ratio of biochemical IC50 values
T2 construct: purchased Upstate Group, Millipore; Dundee, UK
T2 sequence (P42336 whole entry, canonical isoform): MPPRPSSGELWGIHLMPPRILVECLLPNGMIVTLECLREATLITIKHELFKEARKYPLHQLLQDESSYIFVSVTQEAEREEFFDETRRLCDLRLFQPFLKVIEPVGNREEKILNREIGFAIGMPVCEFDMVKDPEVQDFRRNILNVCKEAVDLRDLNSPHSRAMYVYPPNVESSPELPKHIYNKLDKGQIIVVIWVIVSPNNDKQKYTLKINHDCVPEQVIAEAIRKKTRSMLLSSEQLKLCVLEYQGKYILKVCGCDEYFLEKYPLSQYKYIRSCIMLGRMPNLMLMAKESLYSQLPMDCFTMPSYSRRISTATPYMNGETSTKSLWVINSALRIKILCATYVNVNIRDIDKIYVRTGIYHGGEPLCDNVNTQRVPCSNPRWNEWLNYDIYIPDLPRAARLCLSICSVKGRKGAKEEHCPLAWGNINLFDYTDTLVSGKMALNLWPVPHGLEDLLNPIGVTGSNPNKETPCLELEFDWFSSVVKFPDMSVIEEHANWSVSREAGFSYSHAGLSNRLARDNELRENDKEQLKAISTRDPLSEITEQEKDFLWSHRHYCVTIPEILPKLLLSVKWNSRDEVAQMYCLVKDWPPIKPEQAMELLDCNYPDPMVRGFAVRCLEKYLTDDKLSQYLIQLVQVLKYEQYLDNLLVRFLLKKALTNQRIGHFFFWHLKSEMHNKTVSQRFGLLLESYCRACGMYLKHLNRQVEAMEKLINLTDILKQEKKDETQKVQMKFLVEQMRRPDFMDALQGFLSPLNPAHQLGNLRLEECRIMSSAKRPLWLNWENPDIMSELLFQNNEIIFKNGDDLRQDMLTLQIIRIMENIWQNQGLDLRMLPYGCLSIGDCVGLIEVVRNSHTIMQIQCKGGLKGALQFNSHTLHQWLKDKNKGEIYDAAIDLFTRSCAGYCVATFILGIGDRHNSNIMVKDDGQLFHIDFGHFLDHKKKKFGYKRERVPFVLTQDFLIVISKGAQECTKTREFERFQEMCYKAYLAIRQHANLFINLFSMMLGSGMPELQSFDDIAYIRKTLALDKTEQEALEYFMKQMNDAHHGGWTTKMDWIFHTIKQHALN
T2 sequence (P27986 whole entry partner, canonical isoform): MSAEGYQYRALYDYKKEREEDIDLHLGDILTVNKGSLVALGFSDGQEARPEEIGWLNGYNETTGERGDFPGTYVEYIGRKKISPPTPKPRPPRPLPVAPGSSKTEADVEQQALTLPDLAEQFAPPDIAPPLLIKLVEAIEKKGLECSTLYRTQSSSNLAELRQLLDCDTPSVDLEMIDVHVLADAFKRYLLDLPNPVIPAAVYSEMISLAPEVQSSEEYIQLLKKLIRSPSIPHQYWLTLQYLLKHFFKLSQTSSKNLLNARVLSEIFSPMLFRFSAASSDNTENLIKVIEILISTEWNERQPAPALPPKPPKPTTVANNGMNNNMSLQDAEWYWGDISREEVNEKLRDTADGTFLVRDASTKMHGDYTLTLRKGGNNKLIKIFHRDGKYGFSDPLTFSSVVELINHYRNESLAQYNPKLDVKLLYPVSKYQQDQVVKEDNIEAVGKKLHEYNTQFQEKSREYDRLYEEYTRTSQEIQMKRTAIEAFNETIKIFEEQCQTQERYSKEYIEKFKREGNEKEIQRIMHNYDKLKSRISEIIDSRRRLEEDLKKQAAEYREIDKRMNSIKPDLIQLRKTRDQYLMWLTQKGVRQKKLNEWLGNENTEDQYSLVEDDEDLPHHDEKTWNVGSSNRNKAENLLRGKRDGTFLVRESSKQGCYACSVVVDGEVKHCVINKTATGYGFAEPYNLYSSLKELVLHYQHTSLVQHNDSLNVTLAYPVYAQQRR
Experimental: as §1, §2
The same protocol may be used to establish IC50 values for p110α (alpha) PI3K binding. […]

T1 sequence (O00329 whole entry, canonical isoform): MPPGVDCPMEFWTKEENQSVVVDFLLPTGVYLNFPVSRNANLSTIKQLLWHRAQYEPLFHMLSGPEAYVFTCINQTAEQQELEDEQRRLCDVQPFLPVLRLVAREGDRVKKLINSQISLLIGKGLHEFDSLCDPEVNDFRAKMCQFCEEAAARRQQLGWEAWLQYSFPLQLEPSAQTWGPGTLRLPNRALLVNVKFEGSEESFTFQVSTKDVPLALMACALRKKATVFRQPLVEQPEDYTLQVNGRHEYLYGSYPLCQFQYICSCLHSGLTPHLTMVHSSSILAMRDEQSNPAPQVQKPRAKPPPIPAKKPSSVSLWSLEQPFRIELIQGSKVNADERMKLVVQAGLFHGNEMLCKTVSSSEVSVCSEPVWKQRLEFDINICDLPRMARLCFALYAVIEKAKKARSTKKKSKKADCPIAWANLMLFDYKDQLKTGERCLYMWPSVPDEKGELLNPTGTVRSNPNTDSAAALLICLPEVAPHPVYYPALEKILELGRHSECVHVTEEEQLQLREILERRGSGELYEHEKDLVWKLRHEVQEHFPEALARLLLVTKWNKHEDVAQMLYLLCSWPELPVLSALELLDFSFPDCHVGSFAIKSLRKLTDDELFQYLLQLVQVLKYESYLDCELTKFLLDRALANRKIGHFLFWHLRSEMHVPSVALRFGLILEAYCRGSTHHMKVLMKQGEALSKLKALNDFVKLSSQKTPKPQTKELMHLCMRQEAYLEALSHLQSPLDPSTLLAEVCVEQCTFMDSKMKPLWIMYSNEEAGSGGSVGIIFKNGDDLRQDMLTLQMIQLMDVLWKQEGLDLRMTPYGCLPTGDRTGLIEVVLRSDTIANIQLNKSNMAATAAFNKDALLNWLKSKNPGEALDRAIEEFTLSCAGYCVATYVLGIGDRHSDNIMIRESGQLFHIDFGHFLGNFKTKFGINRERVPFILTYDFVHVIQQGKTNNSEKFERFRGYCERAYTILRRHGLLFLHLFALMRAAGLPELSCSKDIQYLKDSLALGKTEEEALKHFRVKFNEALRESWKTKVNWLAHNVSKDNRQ
T1 sequence (P27986 whole entry partner, canonical isoform): as the sequence (P27986 whole entry partner, canonical isoform) above

For `CNc1ncccc1-c1nc(N2CCOCC2)c2nc(CN3CCC(C(C)(C)O)CC3)ccc2n1` [Compound 160, 2-(1-((2-(2-(methylamino)pyridin-3-yl)-4-morpholinopyrido[3,2-d]pyrimidin-6-yl)methyl)piperidin-4-yl)propan-2-ol], the IC50 (p110 delta) was 98.3 nM and the “IC50 p110 alpha/IC50 p110 delta” value (p110 alpha) was 21.

`CC(C)(O)C1CCN(Cc2ccc3nc(-n4ccc5ccccc54)nc(N4CCOCC4)c3n2)CC1` [Compound 128, 2-(1-((2-(1H-indol-1-yl)-4-morpholinopyrido[3,2-d]pyrimidin-6-yl)methyl)piperidin-4-yl)propan-2-ol] was tested, and the IC50 (p110 delta) was 81.9 nM and the “IC50 p110 alpha/IC50 p110 delta” value (p110 alpha) was 26.

For `Cc1cc(Nc2nc(N3CCOCC3)c3nc(CN4CCC(C(C)(C)O)CC4)ccc3n2)n[nH]1` [Compound 106, 2-(1-((2-(5-methyl-1H-pyrazol-3-ylamino)-4-morpholinopyrido[3,2-d]pyrimidin-6-yl)methyl)piperidin-4-yl)propan-2-ol], the IC50 (p110 delta) was 66.9 nM and the “IC50 p110 alpha/IC50 p110 delta” value (p110 alpha) was 31.

For `CCn1c(=O)c2ccccc2n1-c1nc(N2CCOCC2)c2nc(CN3CCC(C(C)(C)O)CC3)ccc2n1` [Compound 104, 2-ethyl-1-(6-((4-(2-hydroxypropan-2-yl)piperidin-1-yl)methyl)-4-morpholinopyrido[3,2-d]pyrimidin-2-yl)-1H-indazol-3(2H)-one], the IC50 (p110 delta) was 11.8 nM and the “IC50 p110 alpha/IC50 p110 delta” value (p110 alpha) was 83.

In the case of `Fc1ccc2[nH]ccc2c1-c1nc(N2CCOCC2)c2nc(CN3CCC(C4COC4)CC3)ccc2n1` [Compound 130, 4-(2-(5-fluoro-1H-indol-4-yl)-6-((4-(oxetan-3-yl)piperidin-1-yl)methyl)pyrido[3,2-d]pyrimidin-4-yl)morpholine], the IC50 (p110 delta) is reported as 3.12 nM and the “IC50 p110 alpha/IC50 p110 delta” value (p110 alpha) is reported as 352.

In the case of `Cc1cc2ccccc2n1-c1nc(N2CCOCC2)c2nc(CN3CCC(C(C)(C)O)CC3)ccc2n1` [Compound 135, 2-(1-((2-(2-methyl-1H-indol-1-yl)-4-morpholinopyrido[3,2-d]pyrimidin-6-yl)methyl)piperidin-4-yl)propan-2-ol], the IC50 (p110 delta) is reported as 25.6 nM and the “IC50 p110 alpha/IC50 p110 delta” value (p110 alpha) is reported as 82.

With `CC(C)(O)C1CCN(Cc2ccc3nc(-c4cccc5[nH]ccc45)nc(N4CCOCC4)c3n2)CC1` [Compound 109, 2-(1-((2-(1H-indol-4-yl)-4-morpholinopyrido[3,2-d]pyrimidin-6-yl)methyl)piperidin-4-yl)propan-2-ol] the IC50 (p110 delta) was 2.82 nM and the “IC50 p110 alpha/IC50 p110 delta” value (p110 alpha) was >350.

With `CC(C)(O)C1CCN(Cc2ccc3nc(-c4cccc5nccn45)nc(N4CCOCC4)c3n2)CC1` [Compound 161, 2-(1-((2-(imidazo[1,2-a]pyridin-5-yl)-4-morpholinopyrido[3,2-d]pyrimidin-6-yl)methyl)piperidin-4-yl)propan-2-ol] the IC50 (p110 delta) was 118 nM and the “IC50 p110 alpha/IC50 p110 delta” value (p110 alpha) was 17.8.

In the case of `O=C1CN(C2CN(Cc3ccc4nc(-c5c(F)ccc6[nH]ccc56)nc(N5CCOCC5)c4n3)C2)CCN1` [Compound 127, 4-(1-((2-(5-fluoro-1H-indol-4-yl)-4-morpholinopyrido[3,2-d]pyrimidin-6-yl)methyl)azetidin-3-yl)piperazin-2-one], the IC50 (p110 delta) is reported as 1.75 nM and the “IC50 p110 alpha/IC50 p110 delta” value (p110 alpha) is reported as 141.

With `Cc1oc2ccccc2c1-c1nc(N2CCOCC2)c2nc(CN3CCC(C(C)(C)O)CC3)ccc2n1` [Compound 103, 2-(1-((2-(2-methylbenzofuran-3-yl)-4-morpholinopyrido[3,2-d]pyrimidin-6-yl)methyl)piperidin-4-yl)propan-2-ol] the IC50 (p110 delta) was 10.5 nM and the “IC50 p110 alpha/IC50 p110 delta” value (p110 alpha) was 200.

In the case of `COC1CN(c2cnc3c(N4CCOCC4)nc(N4CC(OC)C4)nc3c2)C1` [Compound 199, 4-(2,7-bis(3-methoxyazetidin-1-yl)pyrido[3,2-d]pyrimidin-4-yl)morpholine], the IC50 (p110 delta) is reported as 728 nM and the “IC50 p110 alpha/IC50 p110 delta” value (p110 alpha) is reported as 0.95.

`CCc1nc2ccccc2n1-c1nc(N2CCOCC2)c2nc(CN3CC(N4CCOCC4)C3)ccc2n1` [Compound 131, 4-(1-((2-(2-ethyl-1H-benzo[d]imidazol-1-yl)-4-morpholinopyrido[3,2-d]pyrimidin-6-yl)methyl)azetidin-3-yl)morpholine] was tested, and the IC50 (p110 delta) was 2.23 nM and the “IC50 p110 alpha/IC50 p110 delta” value (p110 alpha) was 36.
